Source: ChEMBL document CHEMBL1201862, “PubChem BioAssay data set” (2004)
Activity calls are given as the source filed them.

Experiments:
P388/ADR = assay: cells; type: functional; settings: Mus musculus
SN12K1 = assay: cells; type: functional; settings: Homo sapiens
P388 = assay: cells; type: functional; settings: Mus musculus
[1] = viability of PTEN-deleted HCT116 cells – cell-based, HCT116 PTEN knockout, dose response (AID 1047); type: functional;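 further: HCT116 colon tumor cells with PTEN knocked out; cells exposed to compound for 60 hours before readout; potency for loss of cell viability measured by luminescence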
[2] = viability of HCT116 lacking mutant beta-catenin – cell-based, human colon tumor, dose response (AID 1045); type: functional;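 further: HCT116 colon tumor cells with beta catenin knocked out; cells exposed to compound for 60 hours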
[3] = luciferase reporter signal suppression in cells – H4 neuroglioma cells, luminescence, dose response (AID 1990); type: functional, cell-based
[4] = Luminescence Cell-Based Dose Response HTS to Identify Inhibitors of 5'UTR Stem-Loop Driven Prion Protein mRNA Translation in H4 Neuroglioblastoma Cells. [Related pubchem assays: 1827 (Project Summary), 1813 (Primary HTS)]; type: functional
[5] = alpha-synuclein stem-loop luciferase translation blockers – H4 neuroglioma cells, luminescence, confirmation (AID 1988); type: functional, cell-based
cells = type: functional
Cytochrome P450 2C9 = Cytochrome P450 2C9 (Homo sapiens, UniProt P11712)
Sequence of Cytochrome P450 2C9 (P11712 whole entry): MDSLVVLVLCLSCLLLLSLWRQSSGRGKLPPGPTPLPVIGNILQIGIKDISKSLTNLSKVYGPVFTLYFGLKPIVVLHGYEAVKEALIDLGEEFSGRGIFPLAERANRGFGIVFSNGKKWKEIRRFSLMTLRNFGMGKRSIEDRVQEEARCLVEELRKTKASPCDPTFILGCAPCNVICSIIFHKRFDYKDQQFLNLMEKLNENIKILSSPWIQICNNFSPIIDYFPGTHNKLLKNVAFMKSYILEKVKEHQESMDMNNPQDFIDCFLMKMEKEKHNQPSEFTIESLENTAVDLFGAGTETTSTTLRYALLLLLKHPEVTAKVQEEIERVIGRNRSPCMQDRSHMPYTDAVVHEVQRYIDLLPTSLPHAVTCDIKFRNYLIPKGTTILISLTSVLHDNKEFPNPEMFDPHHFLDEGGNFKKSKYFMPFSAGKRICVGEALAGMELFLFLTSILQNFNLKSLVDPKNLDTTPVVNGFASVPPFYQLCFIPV

BJ [6] = assay: BJ-TERT fibroblast viability loss – cell-based, RAS-independent, luminescence, dose response (AID 1933); type: functional; settings: Homo sapiens
BJ [7] = assay: cells; type: functional, cell-based; settings: Homo sapiens
BJ [8] = assay: BJ-TERT-LT-ST fibroblast viability loss – cell-based, RAS-independent, luminescence, dose response (AID 1935); type: functional; settings: Homo sapiens;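 further: BJ fibroblasts immortalized with TERT plus LT and ST oncogenes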
[9] = DRD fibroblast viability loss – cell-based, non-viral oncogenic, luminescence, dose response (AID 1934); type: functional; settings: Homo sapiens
[10] = target: T1, Ubiquitin-conjugating enzyme E2 N (Homo sapiens, UniProt P61088); type: functional;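 further: Dose-response confirmation in a TR-FRET assay detecting UBC13-driven polyubiquitin chain formation, inhibition measured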
T1 sequence (P61088 whole entry): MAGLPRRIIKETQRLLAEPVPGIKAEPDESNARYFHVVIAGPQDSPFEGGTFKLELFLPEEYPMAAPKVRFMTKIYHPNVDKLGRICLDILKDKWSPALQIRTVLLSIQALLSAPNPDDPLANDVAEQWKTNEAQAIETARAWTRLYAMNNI

[11] = reduction of Shn3 3'UTR-driven luciferase in osteoblasts – cell-based, Clone20 osteoblasts, firefly luciferase, cherry-picked, dose response (AID 624132); type: functional;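 further: firefly luciferase luminescence from reporter carrying the Shn3 3'UTR in osteoblasts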
[12] = loss of viability in HepG2 cells – cell-based, CellTiter-Glo, cherry-picked, cytotoxicity control for Shn3 inhibitor project, dose response (AID 624134); type: functional
[13] = non-specific 3'UTR reporter inhibition in Clone20-Shn3RL – cell-based, Renilla luciferase, cherry-picked, counter-screen for Shn3 inhibitor project, dose response (AID 624133); type: functional
Cytochrome P450 3A4 = Cytochrome P450 3A4 (Homo sapiens, UniProt P08684);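 further: CYP3A4 tested as one member of a cytochrome P450 panel screen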
Sequence of Cytochrome P450 3A4 (P08684 whole entry): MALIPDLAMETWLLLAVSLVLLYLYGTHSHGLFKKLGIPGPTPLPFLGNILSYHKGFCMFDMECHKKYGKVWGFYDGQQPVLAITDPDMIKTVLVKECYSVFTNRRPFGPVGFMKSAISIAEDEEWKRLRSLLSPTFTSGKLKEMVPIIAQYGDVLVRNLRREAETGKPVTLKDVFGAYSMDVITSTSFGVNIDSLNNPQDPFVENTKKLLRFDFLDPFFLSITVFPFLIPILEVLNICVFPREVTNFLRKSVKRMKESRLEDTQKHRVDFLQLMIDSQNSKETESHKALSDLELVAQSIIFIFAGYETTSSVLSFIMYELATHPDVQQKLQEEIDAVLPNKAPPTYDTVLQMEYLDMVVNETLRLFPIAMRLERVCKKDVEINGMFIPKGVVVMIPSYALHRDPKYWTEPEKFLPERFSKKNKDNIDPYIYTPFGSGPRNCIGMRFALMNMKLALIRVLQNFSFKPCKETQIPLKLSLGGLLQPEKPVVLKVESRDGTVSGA

[14] = viability of uninfected HEp-2 cells – cell-based, HTS, cytotoxicity control for RSV inhibitor project, dose response (AID 2410); type: functional; settings: human respiratory syncytial virus
[15] = Luminescence Cell-Based Dose Retest to Confirm Inhibitors of Cancer Stem Cells. [Related pubchem assays (depositor defined):AID2717, AID2721]; type: functional; settings: Homo sapiens
Genome polyprotein = Genome polyprotein (dengue virus type 2, UniProt P29990); assay: flavivirus cap methylation enzyme inhibition – biochemical, confirmation dose response, primary screen (AID 588689); type: functional
Sequence of Genome polyprotein (P29990 2492-3391 limits assumed): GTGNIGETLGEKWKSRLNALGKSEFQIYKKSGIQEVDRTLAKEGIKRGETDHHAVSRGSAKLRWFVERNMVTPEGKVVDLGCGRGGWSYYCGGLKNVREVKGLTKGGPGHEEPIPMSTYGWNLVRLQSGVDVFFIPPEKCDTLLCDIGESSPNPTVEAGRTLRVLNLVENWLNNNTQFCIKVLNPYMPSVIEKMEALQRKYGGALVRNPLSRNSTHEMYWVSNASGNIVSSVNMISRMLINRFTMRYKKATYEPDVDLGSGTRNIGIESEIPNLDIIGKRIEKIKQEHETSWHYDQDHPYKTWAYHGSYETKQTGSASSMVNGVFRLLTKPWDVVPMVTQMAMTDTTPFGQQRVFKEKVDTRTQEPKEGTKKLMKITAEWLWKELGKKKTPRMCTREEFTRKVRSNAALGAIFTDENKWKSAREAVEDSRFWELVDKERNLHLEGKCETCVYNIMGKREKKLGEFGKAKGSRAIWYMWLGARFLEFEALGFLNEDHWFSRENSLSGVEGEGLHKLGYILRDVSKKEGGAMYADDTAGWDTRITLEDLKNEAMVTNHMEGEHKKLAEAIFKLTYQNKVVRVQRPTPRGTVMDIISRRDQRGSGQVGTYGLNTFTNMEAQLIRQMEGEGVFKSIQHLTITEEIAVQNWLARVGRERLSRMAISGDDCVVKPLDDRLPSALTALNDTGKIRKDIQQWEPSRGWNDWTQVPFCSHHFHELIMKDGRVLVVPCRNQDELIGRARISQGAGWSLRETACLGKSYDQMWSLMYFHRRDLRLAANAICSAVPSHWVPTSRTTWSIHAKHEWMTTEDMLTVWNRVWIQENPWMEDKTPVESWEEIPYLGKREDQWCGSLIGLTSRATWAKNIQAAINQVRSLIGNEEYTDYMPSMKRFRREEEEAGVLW

Aminopeptidase N = target: T2, Aminopeptidase N (Plasmodium falciparum FcB1/Columbia, UniProt O96935); assay: malaria alanyl aminopeptidase activity blockers – biochemical, fluorogenic H-Leu-NHMec substrate, 1536-well (AID 1445); parameters: species or system Plasmodium falciparum 3D7, 3D7
T2 sequence (O96935 whole entry): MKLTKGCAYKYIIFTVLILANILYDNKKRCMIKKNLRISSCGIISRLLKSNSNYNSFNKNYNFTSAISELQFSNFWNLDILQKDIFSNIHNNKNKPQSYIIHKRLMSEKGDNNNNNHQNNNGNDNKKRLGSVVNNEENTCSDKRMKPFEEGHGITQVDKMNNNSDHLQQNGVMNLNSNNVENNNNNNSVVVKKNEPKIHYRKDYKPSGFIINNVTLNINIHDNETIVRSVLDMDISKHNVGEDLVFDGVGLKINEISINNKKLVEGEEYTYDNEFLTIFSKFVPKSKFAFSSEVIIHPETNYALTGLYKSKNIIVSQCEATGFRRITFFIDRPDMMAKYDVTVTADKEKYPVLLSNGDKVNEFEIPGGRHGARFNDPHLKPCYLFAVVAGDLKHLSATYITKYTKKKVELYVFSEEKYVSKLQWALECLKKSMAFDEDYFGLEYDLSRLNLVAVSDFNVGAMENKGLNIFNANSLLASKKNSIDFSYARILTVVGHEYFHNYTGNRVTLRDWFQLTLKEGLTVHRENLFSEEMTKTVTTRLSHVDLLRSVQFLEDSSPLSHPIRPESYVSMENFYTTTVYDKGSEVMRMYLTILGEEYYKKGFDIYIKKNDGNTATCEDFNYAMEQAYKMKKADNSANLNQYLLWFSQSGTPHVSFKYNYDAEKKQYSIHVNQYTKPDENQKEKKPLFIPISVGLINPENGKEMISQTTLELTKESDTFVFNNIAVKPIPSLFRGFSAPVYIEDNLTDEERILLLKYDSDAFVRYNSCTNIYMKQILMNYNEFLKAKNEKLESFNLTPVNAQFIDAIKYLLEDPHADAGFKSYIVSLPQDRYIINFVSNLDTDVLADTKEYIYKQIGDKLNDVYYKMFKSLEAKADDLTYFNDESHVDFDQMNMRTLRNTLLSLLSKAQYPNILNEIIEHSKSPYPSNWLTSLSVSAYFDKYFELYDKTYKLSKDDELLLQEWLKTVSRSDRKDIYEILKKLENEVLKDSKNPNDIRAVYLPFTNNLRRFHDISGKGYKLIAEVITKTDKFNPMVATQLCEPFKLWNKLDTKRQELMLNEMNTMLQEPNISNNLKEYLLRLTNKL

Cytochrome P450 2D6 = Cytochrome P450 2D6 (Homo sapiens, UniProt P10635);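 further: CYP2D6 member of a cytochrome P450 panel assay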
Sequence of Cytochrome P450 2D6 (P10635 whole entry): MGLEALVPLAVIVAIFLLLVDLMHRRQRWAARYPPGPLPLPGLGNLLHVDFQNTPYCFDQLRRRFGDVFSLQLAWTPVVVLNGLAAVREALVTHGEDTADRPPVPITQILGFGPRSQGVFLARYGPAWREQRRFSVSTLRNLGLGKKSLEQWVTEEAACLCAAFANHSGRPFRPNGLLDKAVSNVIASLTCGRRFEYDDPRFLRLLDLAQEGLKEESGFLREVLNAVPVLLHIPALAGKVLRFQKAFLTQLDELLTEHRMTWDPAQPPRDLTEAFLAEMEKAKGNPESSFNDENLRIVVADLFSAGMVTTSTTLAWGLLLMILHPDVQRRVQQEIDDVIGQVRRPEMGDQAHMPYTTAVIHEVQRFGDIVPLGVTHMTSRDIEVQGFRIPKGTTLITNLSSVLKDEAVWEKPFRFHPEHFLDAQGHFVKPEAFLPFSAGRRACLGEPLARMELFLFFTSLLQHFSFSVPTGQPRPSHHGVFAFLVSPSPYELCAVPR

With `CN1CCN(c2ccc3[nH]c(-c4ccc5[nH]c(-c6ccc(O)cc6)nc5c4)nc3c2)CC1` the GI50 (P388/ADR) was 53.1 µM (inactive), the GI50 (SN12K1) was 27 µM (inactive) and the GI50 (P388) was 7.94 µM (inactive).

With `CC(C)(C)S(=O)(=O)c1cnc2c(-c3ccc(Cl)cc3)cnn2c1N` the EC50 [1] was 10.3 µM (active) and the EC50 [2] was 11.8 µM (active).

For `Cc1ccccc1Cn1cc(NC(=O)c2noc(C(C)C)c2[N+](=O)[O-])cn1`, the EC50 [3] was > 120 µM (not active), the EC50 [4] was > 120 µM (not active) and the EC50 [5] was > 120 µM (not active). For the same molecule, the IC50 (cells) was 7.8 µM (active).

For `COc1ccccc1CC(=O)O/N=C(\N)Cc1cccc2ccccc12`, the AC50 (Cytochrome P450 2C9) was “inconclusive”.

With `COc1ccc(-c2noc(CCC(=O)NCCCN3CCC(Cc4ccccc4)CC3)n2)cc1` the EC50 (BJ [6]) was 23.2 µM (active), the EC50 (BJ [7]) was > 150 µM (not active) and the EC50 (BJ [8]) was > 150 µM (not active). The EC50 [9] was 18.5 µM (active), the IC50 [10] was > 20 µM (inactive) and the AC50 [11] was 4.03 µM (active). The AC50 [12] was 30.4 µM (active) and the AC50 [13] was 20.7 µM (active).

In the case of `O=C(CCc1ccccc1)NNC(=O)C1CCCCC1`, the AC50 (Cytochrome P450 2C9) is reported as “inconclusive”.

With `COC(=O)c1ccccc1NC(=O)c1ccc(Cn2cc(Cl)cn2)o1` the AC50 (Cytochrome P450 3A4) was 10 µM (inconclusive) and the AC50 (Cytochrome P450 2C9) was “inconclusive”.

For `CCc1ccc([C@@H]2CC=C(C(=O)O)[C@H](c3ccc(Cl)cc3)N2S(=O)(=O)c2ccc(C)cc2)cc1`, the CC50 [14] was 11.6 µM (active), the AC50 [15] was 7.7 µM (active) and the IC50 (Genome polyprotein) was 40.3 µM (active).

With `CSc1ncc(Cl)c(C(=O)C(C#N)c2nc3c(C)cc(C)cc3c(=O)[nH]2)n1` (configuration not stated) the IC50 (Aminopeptidase N) was 84.5 µM (active).

With `CN(C)CCCNc1oc(/C=C/c2ccccc2)nc1C#N` the IC50 (Aminopeptidase N) was 45.3 µM (active).

In the case of `CCCc1cc2c(cc1NC(=O)c1ccccc1Cl)OCO2`, the AC50 (Cytochrome P450 2D6) is reported as 28.2 µM (inconclusive) and the AC50 (Cytochrome P450 2C9) is reported as “inconclusive”.

For `COc1cccc(/C=C(/C#N)c2ccc(F)cc2)c1OCc1cccc(C(=O)O)c1`, the IC50 (Aminopeptidase N) was 43.6 µM (active).

In the case of `CCOC(=O)CNC(=O)N1c2ccccc2Sc2ccccc21`, the IC50 (cells) is reported as 1.95 µM (active).

With `Cc1c(CNc2ccc(Cl)c(C(=O)NC(CC(=O)O)C(=O)O)c2)ccc2nc(N)nc(N)c12` (configuration not stated) the GI50 (P388/ADR) was 0.049 µM (active), the GI50 (SN12K1) was 0.043 µM (active) and the GI50 (P388) was 0.0339 µM (active).

With `CCCn1c(-c2ccc[nH]c2=O)nc2cc(C)c(C)cc21` the IC50 (Aminopeptidase N) was 23.8 µM (active).

In the case of `COc1ccc(-c2[nH]c(-c3ccc4c(c3)OCO4)nc2-c2ccccc2)cc1`, the EC50 [1] is reported as 15.9 µM (active) and the EC50 [2] is reported as 20.7 µM (active).

For `COc1cc(/C=C/C(=O)O)cc(S(=O)(=O)NCc2ccc3c(c2)OCO3)c1OC`, the IC50 (Aminopeptidase N) was 81.9 µM (active).
